Test results reported in patent US20230416248A1, “COMPOUNDS AND USES THEREOF” (Foghorn Therapeutics Inc., priority 2020, published 2023).
Read-outs that look alike come from different tables or passages of the source.

Columns and labels:
BRG-1 = molecular target: T1, BRG-1 (Homo sapiens, UniProt P51532); assay: ATPase catalytic activity of BRG-1, ADP-Glo in vitro biochemical assay; conditions: 30 nM BRG-1, 400 μM ATP, read-out: BRG1 IC50
T1 construct: made in house; host or cells: High Five insect cells
T1 sequence (P51532 whole entry): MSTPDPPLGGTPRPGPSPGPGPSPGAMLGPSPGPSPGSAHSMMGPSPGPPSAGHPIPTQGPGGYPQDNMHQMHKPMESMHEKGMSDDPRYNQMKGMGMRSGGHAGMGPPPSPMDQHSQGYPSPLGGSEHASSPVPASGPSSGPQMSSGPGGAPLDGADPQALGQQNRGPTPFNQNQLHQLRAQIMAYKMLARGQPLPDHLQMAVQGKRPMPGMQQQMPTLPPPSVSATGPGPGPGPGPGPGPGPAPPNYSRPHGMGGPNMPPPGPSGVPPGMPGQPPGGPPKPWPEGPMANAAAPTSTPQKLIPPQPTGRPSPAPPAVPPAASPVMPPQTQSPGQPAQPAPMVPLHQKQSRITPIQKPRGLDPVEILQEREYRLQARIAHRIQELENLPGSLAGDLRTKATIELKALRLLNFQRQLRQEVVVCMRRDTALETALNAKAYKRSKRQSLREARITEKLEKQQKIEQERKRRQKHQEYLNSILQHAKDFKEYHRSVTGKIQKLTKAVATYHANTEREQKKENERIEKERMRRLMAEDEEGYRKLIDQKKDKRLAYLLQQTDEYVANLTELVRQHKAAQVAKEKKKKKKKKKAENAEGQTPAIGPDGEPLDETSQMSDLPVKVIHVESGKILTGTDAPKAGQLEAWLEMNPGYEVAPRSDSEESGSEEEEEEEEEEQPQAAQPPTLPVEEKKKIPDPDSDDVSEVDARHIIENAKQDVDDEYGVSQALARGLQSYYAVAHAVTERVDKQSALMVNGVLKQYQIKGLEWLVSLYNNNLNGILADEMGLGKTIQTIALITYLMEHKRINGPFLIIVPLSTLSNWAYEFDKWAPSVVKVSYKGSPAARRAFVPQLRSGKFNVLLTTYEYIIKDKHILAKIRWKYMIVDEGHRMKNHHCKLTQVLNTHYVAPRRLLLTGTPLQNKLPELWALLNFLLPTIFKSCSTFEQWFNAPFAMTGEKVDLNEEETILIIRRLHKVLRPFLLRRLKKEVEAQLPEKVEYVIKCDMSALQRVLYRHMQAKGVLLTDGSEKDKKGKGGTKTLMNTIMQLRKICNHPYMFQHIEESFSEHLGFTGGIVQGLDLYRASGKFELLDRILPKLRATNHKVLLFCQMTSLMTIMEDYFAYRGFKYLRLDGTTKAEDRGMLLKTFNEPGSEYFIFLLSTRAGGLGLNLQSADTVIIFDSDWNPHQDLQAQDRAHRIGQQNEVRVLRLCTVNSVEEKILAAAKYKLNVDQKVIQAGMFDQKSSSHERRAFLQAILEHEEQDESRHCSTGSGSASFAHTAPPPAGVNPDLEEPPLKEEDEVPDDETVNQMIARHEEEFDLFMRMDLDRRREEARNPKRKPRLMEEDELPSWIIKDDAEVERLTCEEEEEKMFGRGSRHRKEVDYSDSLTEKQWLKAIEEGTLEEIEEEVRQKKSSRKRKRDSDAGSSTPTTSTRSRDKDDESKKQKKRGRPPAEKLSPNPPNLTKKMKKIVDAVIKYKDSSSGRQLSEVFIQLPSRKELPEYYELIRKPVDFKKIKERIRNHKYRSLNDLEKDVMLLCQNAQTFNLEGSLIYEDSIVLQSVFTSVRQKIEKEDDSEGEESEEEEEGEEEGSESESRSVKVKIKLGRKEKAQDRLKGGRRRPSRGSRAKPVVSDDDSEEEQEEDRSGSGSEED
In short: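 In this in vitro format, BRG-1 hydrolysis product ADP is detected via a two-step ADP-Glo workup (ATP removal, then ADP-to-ATP conversion with luciferase detection) followed by a luminescence read.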

BRM = molecular target: T2, BRM (Homo sapiens, UniProt P51531); assay: ATPase catalytic activity of BRM, ADP-Glo in vitro biochemical assay; conditions: for IC50: 30 nM BRM, 400 μM ATP; for Ratio* (BRG1 IC50 (μM) divided by BRM IC50 (μM)): selectivity ratio BRG1 IC50 / BRM IC50
T2 construct: made in house; host or cells: High Five insect cells
T2 sequence (P51531 whole entry): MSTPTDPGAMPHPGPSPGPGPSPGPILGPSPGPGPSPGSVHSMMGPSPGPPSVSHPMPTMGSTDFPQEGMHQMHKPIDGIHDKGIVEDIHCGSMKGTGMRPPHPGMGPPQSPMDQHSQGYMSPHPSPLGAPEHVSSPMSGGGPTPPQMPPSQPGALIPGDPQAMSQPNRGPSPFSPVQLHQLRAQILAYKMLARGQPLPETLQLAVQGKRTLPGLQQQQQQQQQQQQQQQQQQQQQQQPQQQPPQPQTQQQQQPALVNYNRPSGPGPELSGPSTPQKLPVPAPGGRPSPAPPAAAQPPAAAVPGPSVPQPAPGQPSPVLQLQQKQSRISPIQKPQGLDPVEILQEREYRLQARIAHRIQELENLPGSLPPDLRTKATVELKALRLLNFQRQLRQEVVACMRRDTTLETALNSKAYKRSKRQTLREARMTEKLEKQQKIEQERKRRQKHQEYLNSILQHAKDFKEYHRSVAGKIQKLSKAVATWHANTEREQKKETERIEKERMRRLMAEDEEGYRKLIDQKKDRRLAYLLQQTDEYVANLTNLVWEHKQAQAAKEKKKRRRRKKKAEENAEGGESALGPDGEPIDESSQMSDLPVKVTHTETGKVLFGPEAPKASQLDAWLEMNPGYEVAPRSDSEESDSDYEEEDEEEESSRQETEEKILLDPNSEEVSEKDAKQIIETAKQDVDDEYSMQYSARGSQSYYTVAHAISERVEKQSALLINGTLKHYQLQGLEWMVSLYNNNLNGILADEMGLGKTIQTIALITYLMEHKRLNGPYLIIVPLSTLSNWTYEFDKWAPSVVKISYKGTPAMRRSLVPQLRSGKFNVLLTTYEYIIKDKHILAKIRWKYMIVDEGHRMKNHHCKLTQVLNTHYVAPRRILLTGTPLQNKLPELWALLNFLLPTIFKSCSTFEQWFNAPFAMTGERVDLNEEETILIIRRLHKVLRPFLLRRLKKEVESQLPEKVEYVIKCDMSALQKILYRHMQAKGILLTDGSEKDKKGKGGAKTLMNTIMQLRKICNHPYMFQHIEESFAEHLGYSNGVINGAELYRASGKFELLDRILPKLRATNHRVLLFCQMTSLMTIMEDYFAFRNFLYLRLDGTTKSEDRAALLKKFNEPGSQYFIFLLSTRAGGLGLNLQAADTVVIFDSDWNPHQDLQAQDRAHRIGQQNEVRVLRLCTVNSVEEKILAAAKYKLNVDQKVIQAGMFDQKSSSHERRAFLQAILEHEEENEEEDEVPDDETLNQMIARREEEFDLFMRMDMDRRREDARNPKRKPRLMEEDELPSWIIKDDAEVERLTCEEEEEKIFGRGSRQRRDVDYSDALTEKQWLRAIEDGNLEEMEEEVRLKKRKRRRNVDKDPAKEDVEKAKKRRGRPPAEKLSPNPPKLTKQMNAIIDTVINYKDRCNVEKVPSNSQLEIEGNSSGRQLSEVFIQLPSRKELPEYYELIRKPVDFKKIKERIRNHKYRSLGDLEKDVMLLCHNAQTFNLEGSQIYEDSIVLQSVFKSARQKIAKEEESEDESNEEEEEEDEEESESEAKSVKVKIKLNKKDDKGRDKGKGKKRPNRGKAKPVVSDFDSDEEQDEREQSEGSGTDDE
In short: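 ADP-Glo luminescence, after depletion of leftover ATP and conversion of ADP, reported the activity. The 1 h room-temperature reaction held 400 μM ATP, 20 nM salmon sperm DNA and 30 nM BRM in 20 mM Tris pH 8, 20 mM MgCl2, 50 mM NaCl, 0.1% Tween-20, 1 mM DTT.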

[1] = ATPase catalytic activity, ADP-Glo

| SMILES | IC50 (BRG-1; ADP-Glo ATPase assay) [nM] | IC50 (BRM; ADP-Glo ATPase assay) [nM] | Ratio* (BRM; ratio BRG1 IC50 / BRM IC50) | IC50 (BRG-1; [1]) [nM] | IC50 (BRM; [1]) [nM] | Ratio* (BRM; ratio of BRG1 IC50 to BRM IC50) | Ratio* (BRG1 IC50 (μM) divided by BRM IC50 (μM)) (BRM) |
| --- | --- | --- | --- | --- | --- | --- | --- |
| CN(c1cnc2c(c1)OCCN2c1ccc2cnc(CNC(=O)c3ccc4c(c3)S(=O)(=O)CCOC4)cc2n1)C1CC1 [Compound 782] | 43.5 | 8.7 | 4.99 | – | – | – | – |
| CN1C(=O)CN(c2ccc3cnc(CNC(=O)c4ccc5c(c4)S(=O)(=O)CCOC5)cc3n2)c2ccccc21 [Compound 511] | – | – | – | 835 | 329 | 2.54 | – |
| CN(c1cccc(-c2ccc3cnc(CNC(=O)c4ccc5c(c4)S(=O)(=O)CCOC5)cc3n2)n1)[C@@H]1CCOC1 [Compound 116] | 236 | 22.6 | – | – | – | – | 10.43 |
| O=C(NCc1cc2nc(N3CCCc4ccncc43)ccc2cn1)c1ccc2c(c1)S(=O)(=O)CCOC2 [Compound 52] | 716 | 76 | – | – | – | – | 9.43 |
| O=C(NCc1cc2c(cn1)CCN(c1cncc(C3CC3)n1)C2)c1ccc2c(c1)S(=O)(=O)CCOC2 [Compound 290] | 1240 | 172 | – | – | – | – | 7.19 |
| C[C@@H]1CN(c2cccc(-c3ccc4cnc(CNC(=O)c5ccc6c(c5)S(=O)(=O)CC[C@H]6C)cc4n3)n2)C[C@H](C)O1 [Compound 490] | – | – | – | 787 | 56.1 | 14.02 | – |
| CN(CCC(F)F)c1cccc(-c2ccc3cnc(CNC(=O)c4ccc5c(c4)S(=O)(=O)CCOC5)cc3n2)n1 [Compound 460] | – | – | – | 235 | 24.2 | 9.71 | – |
| C[C@@H]1CN(c2cccc(-c3ccc4cnc(CNC(=O)c5ccc6c(c5)S(=O)(=O)[C@H](C)COC6)cc4n3)n2)C[C@H](C)O1 [Compound 159] | 409 | 36.7 | – | – | – | – | 11.15 |
| O=C(NCc1cc2nc(-c3cccc(N4CCCC(F)(F)C4)n3)ccc2cn1)c1ccc2c(c1)S(=O)(=O)CCOC2 [Compound 308] | 15.8 | 5.4 | – | – | – | – | 2.91 |
| COc1nc(C(C)(F)F)ccc1-c1ccc2cnc(CNC(=O)c3cc(F)c4c(c3)S(=O)(=O)[C@@H](C)COC4)cc2n1 [Compound 543] | – | – | – | 383 | 20.2 | 18.97 | – |
| C[C@@H]1Cc2ccc(-c3ccc4cnc(CNC(=O)c5ccc6c(c5)S(=O)(=O)CCOC6)cc4n3)nc2N(C)C1 [Compound 661] | – | – | – | 301 | 43.9 | 6.86 | – |
| O=C(NCc1cc2nc(N3CCCc4c(OC(F)F)ccnc43)ccc2cn1)c1ccc2c(c1)S(=O)(=O)CCOC2 [Compound 620] | – | – | – | 158 | 16.8 | 9.37 | – |
| CS(=O)(=O)c1cc(C(=O)NCc2cc3nc(-c4cncc(C5CC5)n4)ccc3cn2)ccc1C(F)F [Compound 231] | 2340 | 130 | – | – | – | – | 17.98 |
| CO[C@H]1CCN(c2cccc(-c3ccc4cnc(CNC(=O)c5ccc6c(c5)S(=O)(=O)CCOC6)cc4n3)n2)C[C@H]1C [Compound 437] | – | – | – | 292 | 24.8 | 11.79 | – |
| CCOc1ccnc2c1CCCN2c1ccc2cnc(CNC(=O)c3ccc4c(c3)S(=O)(=O)CCOC4)cc2n1 [Compound 573] | – | – | – | 43.8 | 7.9 | 5.56 | – |
| Cc1ccnc2c1N(C)CCN2c1ccc2cnc(CNC(=O)c3ccc4c(c3)S(=O)(=O)CCOC4)cc2n1 [Compound 681] | – | – | – | 315 | 33 | 9.53 | – |
| CO[C@H]1CCN(c2cccc(-c3ccc4cnc(CNC(=O)c5ccc6c(c5)S(=O)(=O)CCOC6)cc4n3)n2)C[C@@H]1C [Compound 352] | – | – | – | 483 | 60.2 | 8.02 | – |
| Cc1cc(-c2cccc(-c3ccc4cnc(CNC(=O)c5ccc6c(c5)S(=O)(=O)CCOC6)cc4n3)n2)cc(C)n1 [Compound 169] | 9.9 | 3 | – | – | – | – | 3.33 |

| SMILES | IC50 (BRG-1; ADP-Glo ATPase assay) [nM] | IC50 (BRM; ADP-Glo ATPase assay) [nM] | Ratio* (BRM; ratio BRG1 IC50 / BRM IC50) | IC50 (BRG-1; [1]) [nM] | IC50 (BRM; [1]) [nM] | Ratio* (BRM; ratio of BRG1 IC50 to BRM IC50) | Ratio* (BRG1 IC50 (μM) divided by BRM IC50 (μM)) (BRM) |
| --- | --- | --- | --- | --- | --- | --- | --- |
| CO[C@@H]1C[C@@H]1N(C)c1cccc(-c2ccc3cnc(CNC(=O)c4ccc5c(c4)S(=O)(=O)[C@@H](C)COC5)cc3n2)n1 [Compound 668] | – | – | – | 73.4 | 8.4 | 8.70 | – |
| CS(=O)(=O)c1cc(C(=O)NCc2cc3nc(-c4cn([C@H]5C[C@H](F)C5)nc4OC(F)F)ccc3cn2)ccc1C(F)F [Compound 348] | – | – | – | 2560 | 74.3 | 34.42 | – |
| O=C(NCc1cc2nc(-c3cccc(N4CC5(C4)CC5(F)F)n3)ccc2cn1)c1ccc2c(c1)S(=O)(=O)CCOC2 [Compound 128] | 468 | 42.6 | – | – | – | – | 10.99 |
| O=C(NCc1cc2nc(N3CCOc4c3cnc(C3CC3)c4F)ccc2cn1)c1ccc2c(c1)S(=O)(=O)CCOC2 [Compound 813] | 477 | 38.1 | 12.52 | – | – | – | – |
| C[C@H]1COCc2ccc(C(=O)NCc3cc4nc(-c5ccnc([C@H]6CC6(F)F)n5)ccc4cn3)cc2S1(=O)=O [Compound 464] | – | – | – | 986 | 36 | 27.40 | – |
| O=C(NCc1cc2nc(-c3cccc(C4(F)COC4)n3)ccc2cn1)c1ccc2c(c1)S(=O)(=O)CCOC2 [Compound 142] | 2660 | 230 | – | – | – | – | 11.55 |
| COC[C@H]1C[C@@H](N(C)c2cccc(-c3ccc4cnc(CNC(=O)c5ccc6c(c5)S(=O)(=O)CCOC6)cc4n3)n2)C1 [Compound 436] | – | – | – | 226 | 15 | 15.10 | – |
| COc1ccc2c(c1F)N(c1ccc3cnc(CNC(=O)c4ccc5c(c4)S(=O)(=O)CCOC5)cc3n1)CCO2 [Compound 774] | 174 | 12 | 14.44 | – | – | – | – |
| O=C(NCc1cc2nc(-c3cccc(C4CC4)n3)ccc2cn1)c1cnc2c(c1)S(=O)(=O)CCOC2 [Compound 204] | 679 | 56.5 | – | – | – | – | 12.01 |
| COc1ncc2c(c1F)N(c1ccc3cnc(CNC(=O)c4ccc5c(c4)S(=O)(=O)CCOC5)cc3n1)CCC2 [Compound 783] | 444 | 31.1 | 14.27 | – | – | – | – |
| CS(=O)(=O)c1cc(C(=O)NCc2cc3nc(N4CCCc5cc(C6CC6)cnc54)ccc3cn2)cnc1C(F)F [Compound 724] | 2250 | 122 | 18.41 | – | – | – | – |
| Cc1cc2c(-c3ccc4cnc(CNC(=O)c5ccc6c(c5)S(=O)(=O)CCOC6)cc4n3)cncc2n1C [Compound 657] | – | – | – | 202 | 35.3 | 5.73 | – |
| O=C(NCc1cc2cc(-c3cccc(N4CCC4)n3)ccc2cn1)c1cc(F)c2c(c1)S(=O)(=O)CCOC2 [Compound 268] | 343 | 16.3 | – | – | – | – | 21.00 |
| C[C@@H]1CN(c2cccc(-c3ccc4cnc(CNC(=O)c5ccc6c(c5)S(=O)(=O)CCO[C@@H]6C5CC5)cc4n3)n2)C[C@H](C)O1 [Compound 454] | – | – | – | 213 | 25.2 | 8.46 | – |
| O=C(NCc1cc2nc(N3CCCc4ccc(C5CC5)nc43)ccc2cn1)c1ccc2c(c1)S(=O)(=O)CCOC2 [Compound 536] | – | – | – | 590 | 10.4 | 56.64 | – |
| C[C@H]1Cc2ccc(-c3ccc4cnc(CNC(=O)c5ccc6c(c5)S(=O)(=O)CCOC6)cc4n3)nc2N(C)C1 [Compound 662] | – | – | – | 173 | 36.7 | 4.71 | – |
| COc1ccc(-c2ccc3cnc(CNC(=O)c4ccc5c(c4)S(=O)(=O)CCOC5)cc3n2)nc1 [Compound 850] | 4560 | 664 | 6.87 | – | – | – | – |
| C[C@@H]1CN(c2cccc(-c3ccc4cnc(CNC(=O)c5ccc6c(c5)S(=O)(=O)[C@H](C)CC6)cc4n3)n2)C[C@H](C)O1 [Compound 362] | – | – | – | 238 | 16.9 | 14.06 | – |
